The results in this text go back to ChEMBL document CHEMBL1141370, “Biologically active triterpenoid saponins from Ardisia japonica” (J Nat Prod, 2007).

What all share (type): cell-based
One test deals with HL-60. The test can be described thus: Cytotoxicity against human HL60 cell line by MTT assay. Background: Tetrazolium assays rely on reduction of a dye to a coloured formazan, in cell work by metabolically active cells.
The next test concerns A549. Briefly: Cytotoxicity against human A549 cell line by MTT assay.
Test [1] is described as follows: Cytotoxicity against human KATO3 cell line by MTT assay.

The structures appear in SMILES notation.

A word on the IC50: it is the concentration that inhibits the measured activity by half. For the molecule `CC1(C)CC[C@]23C(=O)O[C@@]4(CC[C@@H]5[C@@]6(C)CC[C@H](O[C@@H]7OC[C@H](O[C@@H]8O[C@H](CO)[C@@H](O)[C@H](O[C@@H]9O[C@H](CO)[C@@H](O[C@@H]%10O[C@H](CO)[C@@H](O)[C@H](O)[C@H]%10O)[C@H](O[C@@H]%10O[C@H](CO)[C@@H](O)[C@H](O)[C@H]%10O)[C@H]9O)[C@H]8O[C@@H]8OC[C@@H](O)[C@H](O)[C@H]8O)[C@H](O)[C@H]7O[C@@H]7O[C@H](CO)[C@@H](O)[C@H](O)[C@H]7O)C(C)(C)[C@@H]6CC[C@@]5(C)[C@]4(C)C[C@H]2O)[C@@H]3C1` [ARDISIANOSIDE H], the IC50 in the test on HL-60 was 28.4 µM; in the test with A549 it was 33.4 µM; in test [1], 8.3 µM.

With `CC1(C)[C@@H](O[C@@H]2OC[C@H](O[C@@H]3O[C@H](CO)[C@@H](O)[C@H](O)[C@H]3O)[C@H](O)[C@H]2O[C@@H]2O[C@H](CO)[C@@H](O)[C@H](O)[C@H]2O)CC[C@]2(C)[C@H]3CC[C@]45OC[C@@]6(CC[C@](C)(CO)C[C@H]64)[C@H](O)C[C@@]5(C)[C@]3(C)CC[C@@H]12` [ARDISIANOSIDE E], the half-inhibitory concentration (IC50) was found to be 3.4 µM in the test with HL-60, 3.1 µM in the test with A549 and 0.4 µM in test [1].

Turning to `C[C@@H]1O[C@@H](O[C@H]2[C@H](O[C@H]3CO[C@@H](O[C@H]4CC[C@]5(C)[C@H]6CC=C7[C@@H]8C[C@@](C)(CO)CC[C@]8(CO)[C@@H]8O[C@@H]8[C@@]7(C)[C@]6(C)CC[C@H]5C4(C)C)[C@H](O[C@@H]4O[C@H](CO)[C@@H](O)[C@H](O)[C@H]4O)[C@H]3O)O[C@H](CO)[C@@H](O)[C@@H]2O)[C@H](O)[C@H](O)[C@H]1O` [ARDISIANOSIDE K], the 50% inhibitory concentration (IC50) (in the test with HL-60; in the test with A549; in test [1]) was > 100 µM in each case.

As for `C[C@@H]1O[C@@H](O[C@H]2[C@H](O[C@H]3CO[C@@H](O[C@H]4CC[C@]5(C)[C@H]6CC[C@]78OC[C@@]9(CC[C@](C)(C=O)C[C@H]97)[C@H](O)C[C@@]8(C)[C@]6(C)CC[C@H]5C4(C)C)[C@H](O)[C@H]3O)O[C@H](CO)[C@@H](O)[C@@H]2O)[C@H](O)[C@H](O)[C@H]1O` [CYCLAMIRETIN A], the half-inhibitory concentration (IC50) with HL-60 was 18.1 µM; with A549, 29.2 µM; in test [1], 1.7 µM.

In the case of `CC1(C)CC[C@]23CO[C@@]4(CC[C@@H]5[C@@]6(C)CC[C@H](O[C@@H]7OC[C@H](O[C@@H]8O[C@H](CO)[C@@H](O)[C@H](O[C@@H]9O[C@H](CO)[C@@H](O[C@@H]%10O[C@H](CO)[C@@H](O)[C@H](O)[C@H]%10O)[C@H](O[C@@H]%10O[C@H](CO)[C@@H](O)[C@H](O)[C@H]%10O)[C@H]9O)[C@H]8O[C@@H]8OC[C@@H](O)[C@H](O)[C@H]8O)[C@H](O)[C@H]7O[C@@H]7O[C@H](CO)[C@@H](O)[C@H](O)[C@H]7O)C(C)(C)[C@@H]6CC[C@@]5(C)[C@]4(C)C[C@H]2O)[C@@H]3C1` [ARDISIANOSIDES A], the figures for the half-inhibitory concentration (IC50) (in the test on HL-60; in the test on A549; in test [1]) were 2.7 µM, 6 µM and 0.4 µM, respectively.

Regarding `C[C@@H]1O[C@@H](O[C@H]2[C@H](O[C@H]3CO[C@@H](O[C@H]4CC[C@]5(C)[C@H]6CC[C@]78OC[C@@]9(CC[C@](C)(C=O)C[C@H]97)[C@H](O)C[C@@]8(C)[C@]6(C)CC[C@H]5C4(C)C)[C@H](O[C@@H]4O[C@H](CO)[C@@H](O)[C@H](O)[C@H]4O)[C@H]3O)O[C@H](CO)[C@@H](O)[C@@H]2O)[C@H](O)[C@H](O)[C@H]1O` [ARDISIACRISPIN B], the values for the half-maximal inhibitory concentration (IC50) (in the test with HL-60; with A549; in test [1]) were 3.2 µM, 3.6 µM and 1.2 µM, respectively.

For the molecule `CC1(C)[C@@H](O[C@@H]2OC[C@H](O[C@@H]3O[C@H](CO)[C@@H](O)[C@H](O)[C@H]3O[C@@H]3OC[C@@H](O)[C@H](O)[C@H]3O)[C@H](O)[C@H]2O)CC[C@]2(C)[C@H]3CC[C@]45OC[C@@]6(CC[C@](C)(C=O)C[C@H]64)[C@H](O)C[C@@]5(C)[C@]3(C)CC[C@@H]12` [PRIMULANIN], the IC50 with HL-60 stood at 24.7 µM; with A549, 27.7 µM; in test [1], 3.3 µM.

For `C[C@@H]1O[C@@H](O[C@H]2[C@H](O[C@H]3CO[C@@H](O[C@H]4CC[C@]5(C)[C@H]6CC[C@]78OC(=O)[C@@]9(CC[C@](C)(C=O)C[C@H]97)[C@H](O)C[C@@]8(C)[C@]6(C)CC[C@H]5C4(C)C)[C@H](O[C@@H]4O[C@H](CO)[C@@H](O)[C@H](O)[C@H]4O)[C@H]3O)O[C@H](CO)[C@@H](O)[C@@H]2O)[C@H](O)[C@H](O)[C@H]1O` [ARDISIANOSIDE J], the IC50 turned out to be 45.6 µM with HL-60, 32.9 µM in the test on A549 and 33.5 µM in test [1].

For the molecule `COc1cc([C@@H]2c3cc4c(cc3[C@@H](O[C@@H]3O[C@@H]5CO[C@@H](C)O[C@H]5[C@H](O)[C@H]3O)[C@H]3COC(=O)[C@H]23)OCO4)cc(OC)c1O` [ETOPOSIDE], the half-maximal inhibitory concentration (IC50) is 0.3 µM in the test with HL-60, 20.9 µM in the test on A549 and 0.1 µM in test [1].

Consider `C[C@@H]1O[C@@H](O[C@H]2[C@H](O[C@H]3CO[C@@H](O[C@H]4CC[C@]5(C)[C@H]6CC[C@]78OC[C@@]9(CC[C@](C)(C=O)C[C@H]97)C(=O)C[C@@]8(C)[C@]6(C)CC[C@H]5C4(C)C)[C@H](O)[C@H]3O)O[C@H](CO)[C@@H](O)[C@@H]2O)[C@H](O)[C@H](O)[C@H]1O` [ARDISIAMAMILLOSIDE H], for which the figures for the IC50 (in the test on HL-60; in the test on A549; in test [1]) were 30.8 µM, 37.2 µM and 21.5 µM, respectively.

Turning to `C[C@@H]1O[C@@H](O[C@H]2[C@H](O[C@H]3CO[C@@H](O[C@H]4CC[C@]5(C)[C@H]6CC[C@]78OC[C@@]9(CC[C@](C)(O)C[C@H]97)[C@H](O)C[C@@]8(C)[C@]6(C)CC[C@H]5C4(C)C)[C@H](O[C@@H]4O[C@H](CO)[C@@H](O)[C@H](O)[C@H]4O)[C@H]3O)O[C@H](CO)[C@@H](O)[C@@H]2O)[C@H](O)[C@H](O)[C@H]1O` [ARDISIANOSIDE G], the half-inhibitory concentration (IC50) (in the test on HL-60; in the test with A549; in test [1]) was > 100 µM each time.

Consider `C[C@@H]1O[C@@H](O[C@H]2[C@H](O[C@H]3CO[C@@H](O[C@H]4CC[C@]5(C)[C@H]6CC[C@]78OC(=O)[C@@]9(CC[C@](C)(CO)C[C@H]97)[C@H](O)C[C@@]8(C)[C@]6(C)CC[C@H]5C4(C)C)[C@H](O[C@@H]4O[C@H](CO)[C@@H](O)[C@H](O)[C@H]4O)[C@H]3O)O[C@H](CO)[C@@H](O)[C@@H]2O)[C@H](O)[C@H](O)[C@H]1O` [ARDISIANOSIDE I], for which the IC50 (with HL-60; in the test with A549; in test [1]) was > 100 µM each time.

For the molecule `CC1(C)[C@@H](O[C@@H]2OC[C@H](O[C@@H]3O[C@H](CO)[C@@H](O)[C@H](O[C@@H]4O[C@H](CO)[C@@H](O)[C@H](O)[C@H]4O)[C@H]3O[C@@H]3OC[C@@H](O)[C@H](O)[C@H]3O)[C@H](O)[C@H]2O[C@@H]2O[C@H](CO)[C@@H](O)[C@H](O)[C@H]2O)CC[C@]2(C)[C@H]3CC[C@]45OC[C@@]6(CC[C@](C)(C=O)C[C@H]64)[C@H](O)C[C@@]5(C)[C@]3(C)CC[C@@H]12` [CYCLAMIN], the concentration for half-maximal inhibition (IC50) was found to be 3 µM with HL-60, 3.3 µM with A549 and 0.3 µM in test [1].

For `CC1(C)CC[C@]23CO[C@@]4(CC[C@@H]5[C@@]6(C)CC[C@H](O[C@@H]7OC[C@H](O[C@@H]8O[C@H](CO)[C@@H](O)[C@H](O[C@@H]9O[C@H](CO)[C@@H](O)[C@H](O[C@@H]%10O[C@H](CO)[C@@H](O)[C@H](O)[C@H]%10O)[C@H]9O)[C@H]8O[C@@H]8OC[C@@H](O)[C@H](O)[C@H]8O)[C@H](O)[C@H]7O[C@@H]7O[C@H](CO)[C@@H](O)[C@H](O)[C@H]7O)C(C)(C)[C@@H]6CC[C@@]5(C)[C@]4(C)C[C@H]2O)[C@@H]3C1` [ARDISIANOSIDE B], the IC50 in the test with HL-60 was 2.4 µM; with A549, 3.1 µM; in test [1], 0.3 µM.

`C[C@@H]1O[C@@H](O[C@H]2[C@H](O[C@H]3CO[C@@H](O[C@H]4CC[C@]5(C)[C@H]6CC=C7[C@@H]8C[C@@](C)(CO)CC[C@]8(CO)[C@H](O)C[C@@]7(C)[C@]6(C)CC[C@H]5C4(C)C)[C@H](O[C@@H]4O[C@H](CO)[C@@H](O)[C@H](O)[C@H]4O)[C@H]3O)O[C@H](CO)[C@@H](O)[C@@H]2O)[C@H](O)[C@H](O)[C@H]1O` [ARDISIAMAMILLOSEDE C]: the concentration for half-maximal inhibition (IC50) (in the test with HL-60; in the test on A549; in test [1]) was > 100 µM throughout.

As to `C[C@@H]1O[C@@H](O[C@H]2[C@H](O[C@H]3CO[C@@H](O[C@H]4CC[C@]5(C)[C@H]6CC[C@]78OC[C@@]9(CC[C@](C)(CO)C[C@H]97)[C@H](O)C[C@@]8(C)[C@]6(C)CC[C@H]5C4(C)C)[C@H](O[C@@H]4O[C@H](CO)[C@@H](O)[C@H](O)[C@H]4O)[C@H]3O)O[C@H](CO)[C@@H](O)[C@@H]2O)[C@H](O)[C@H](O)[C@H]1O` [ARDISICRENOSIDE A], the values for the IC50 (with HL-60; in the test on A549; in test [1]) were > 100 µM, > 100 µM and 14.5 µM, respectively.

For `CC1(C)CC[C@]23CO[C@@]4(CC[C@@H]5[C@@]6(C)CC[C@H](O[C@@H]7OC[C@H](O[C@@H]8O[C@H](CO)[C@@H](O)[C@H](O)[C@H]8O[C@@H]8OC[C@@H](O)[C@H](O)[C@H]8O)[C@H](O)[C@H]7O)C(C)(C)[C@@H]6CC[C@@]5(C)[C@]4(C)C[C@H]2O)[C@@H]3C1` [ARDISIANOSIDE D], the IC50 in the test with HL-60 came out at 3.5 µM; in the test on A549 it was 24.2 µM; in test [1] it was 1.5 µM.

For `C[C@@H]1O[C@@H](O[C@H]2[C@H](O[C@H]3CO[C@@H](O[C@H]4CC[C@]5(C)[C@H]6CC[C@]78OC[C@@]9(CCC(C)(C)C[C@H]97)[C@H](O)C[C@@]8(C)[C@]6(C)CC[C@H]5C4(C)C)[C@H](O[C@@H]4O[C@H](CO)[C@@H](O)[C@H](O)[C@H]4O)[C@H]3O)O[C@H](CO)[C@@H](O)[C@@H]2O)[C@H](O)[C@H](O)[C@H]1O`, the IC50 is 1.9 µM in the test on HL-60, 3.7 µM in the test with A549 and 0.4 µM in test [1].
